Reference: US11793824B2, “Administration of nicotinamide mononucleotide in the treatment of disease” (Washington University, priority 2013, dated 2023)

How the values were obtained:
Sirt2 = molecular target: T1, Sirt2 (Mus musculus, UniProt Q8VDQ8); test: Oligodendrocyte formation from dissociated neurospheres with Sirt2 inhibitor; type: cell-based; settings: AGK2 10 μM, 6-7 days of differentiation
T1 construct: endogenous in cells; host or cells: dissociated primary neurospheres (NSPCs) from postnatal mouse hippocampi, differentiated for 6-7 days
T1 sequence (Q8VDQ8 1-389): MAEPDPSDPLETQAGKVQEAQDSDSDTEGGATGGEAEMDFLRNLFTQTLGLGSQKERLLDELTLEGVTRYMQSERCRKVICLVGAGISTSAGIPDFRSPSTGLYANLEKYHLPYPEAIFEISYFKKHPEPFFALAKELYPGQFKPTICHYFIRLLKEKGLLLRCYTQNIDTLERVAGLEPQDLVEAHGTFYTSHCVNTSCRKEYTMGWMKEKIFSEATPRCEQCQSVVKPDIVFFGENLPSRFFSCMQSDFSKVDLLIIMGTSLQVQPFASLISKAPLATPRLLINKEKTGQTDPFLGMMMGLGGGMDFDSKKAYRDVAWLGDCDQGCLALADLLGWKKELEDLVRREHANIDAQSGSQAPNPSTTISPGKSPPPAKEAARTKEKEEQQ
Description: FK866 (Hasmann & Schemainda, 2003) (Sigma F8557), EX527 (Peck et al, 2010) (Cayman Chemical 10009798), and AGK2 (Outeiro et al, 2007) (Sigma A8231) were dissolved in DMSO and used to inhibit Nampt, Sirt1, and Sirt2 respectively.
Three to five days after their first passage, neurospheres were trypsinized, washed with dissociation medium, and plated at 150,000 cells per well in 24-well plates in differentiation medium [growth medium without FGF and EGF and with BDNF (5 ng/mL, Peprotech, 450-02) on glass coverslips coated with poly-D-lysine (50 ug/mL; Sigma) and laminin (20 ug/mL; BD Biosciences)]. 6-well plates were coated with poly-D-lysine (20 ug/mL) and laminin (10 ug/mL). To enrich for oligodendrocytes, PDGFαα (10 ng/ml, Peprotech 100-13A) was added to neurospheres at passage 2 and PDGFαα (2.5 ng/ml) and 3,3-,5-triiodo-L-thyronine (T3, 40 ng/ml, Sigma T4397) were added to differentiation medium. The percentage of oligodendrocyte precursor cells (OPCs) generated was analyzed after 2 d of differentiation, and the percentage of differentiated oligodendrocytes was analyzed after 6-7 d of differentiation.
The inventors acutely treated NSPCs with the selective inhibitor of Sirt2, AGK2, or the Sirt1 inhibitor, EX527. […] The inventors generated Sirt1/Sirt2-double knockout (Sirt1/2 DKO) neurospheres. […]

Sirt1 = molecular target: T2, Sirt1 (Mus musculus, UniProt Q923E4); test: Oligodendrocyte formation from dissociated neurospheres with Sirt1 inhibitor; type: cell-based; settings: EX527 80 μM, 6-7 days of differentiation
T2 construct: endogenous in cells; host or cells: dissociated primary neurospheres (NSPCs) from postnatal mouse hippocampi, differentiated for 6-7 days
T2 sequence (Q923E4 1-737): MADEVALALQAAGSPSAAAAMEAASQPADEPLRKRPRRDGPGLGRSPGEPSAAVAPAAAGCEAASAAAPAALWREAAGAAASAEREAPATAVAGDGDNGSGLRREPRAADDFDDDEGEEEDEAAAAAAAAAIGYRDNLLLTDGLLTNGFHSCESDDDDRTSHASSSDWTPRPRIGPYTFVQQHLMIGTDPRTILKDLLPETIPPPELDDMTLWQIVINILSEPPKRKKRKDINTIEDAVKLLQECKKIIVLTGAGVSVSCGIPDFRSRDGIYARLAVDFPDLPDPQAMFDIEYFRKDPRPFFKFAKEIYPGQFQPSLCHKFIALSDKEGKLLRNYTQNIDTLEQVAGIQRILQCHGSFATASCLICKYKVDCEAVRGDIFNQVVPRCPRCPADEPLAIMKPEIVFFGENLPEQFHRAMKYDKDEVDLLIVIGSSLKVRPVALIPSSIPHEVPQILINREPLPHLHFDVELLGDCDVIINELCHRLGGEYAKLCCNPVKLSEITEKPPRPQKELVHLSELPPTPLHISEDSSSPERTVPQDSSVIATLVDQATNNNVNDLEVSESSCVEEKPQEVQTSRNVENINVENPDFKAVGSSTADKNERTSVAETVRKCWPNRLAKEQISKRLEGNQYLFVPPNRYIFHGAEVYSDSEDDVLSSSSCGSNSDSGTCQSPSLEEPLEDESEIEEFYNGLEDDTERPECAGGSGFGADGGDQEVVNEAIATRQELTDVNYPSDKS
Description: Data are presented as mean±s.e.m. *P<0.05. **P<0.01. ***P<0.001.

NestinGFP+ cells = test: Cuprizone model of demyelination and remyelination, fate of NestinGFP+ cells; type: in vivo, mouse
Description: Demyelination was induced by feeding 6 to 8-week-old mice a diet containing 0.2% cuprizone (bis-cyclohexanone oxaldihydrazone; Sigma C9012) mixed into a ground standard rodent chow for 4 to 5 weeks (Harlan Laboratories, TD.01453). To allow recovery from cuprizone treatment, food was replaced with standard chow for an additional 1 week.
All tissue sections were and cells incubated in blocking/permeabilization solution containing 10% normal goat serum, 1% BSA, and 0.3% Triton-X in PBS for 45 to 60 min prior to 24 or 48 h of incubation with primary antibodies in 5% normal goat serum and 0.1% Triton-X in PBS at 4° C. at the concentrations listed below. […], Alexa488, or Cy3 conjugated-secondary antibodies diluted in 2% normal goat serum, 1% BSA, and 0.1% Triton-X in PBS were added for 2 h at room temperature. Nuclei were stained with 4,6-diamidino-2-phenylindole (Sigma) for 10 min at room temperature.
For tissue sections, high-magnification (20×, 0.8DICII or 40× oil 1.3DICII) microscopic imaging was performed using a Zeiss Axioimage.Z1. Images were taken in z-stacks of 1 μm steps through the range of tissue section immunoreactivity. For the dorsolateral corner of the SVZ, images were taken from bregma 1.10 to −0.10 mm. For the corpus callosum, images were taken from bregma −1.06 to −2.54 mm. For the dentate gyrus, images were taken from bregma −1.34 to −3.64 mm. Quantification was performed blinded to genotype on 3-8 tissue sections per animal. Cell densities were estimated by the number of immunoreactive cells divided by the area of the structure, measured with ImageJ. Verification of colocalization was achieved by importing stacks of Z images into ImageJ and performing 3D rendering. For cells, 10 or 20× microscopic imaging was performed using a Zeiss Axioimage.Z1. Quantification was performed blinded to genotype on 2 to 3 fields of view per sample and treatment, from 3 to 9 independent samples.
The inventors employed the cuprizone model of demyelination and remyelination. Specifically, the inventors fed 6- to 9-week-old iNSPC-Nampt-KO and littermate control mice (iNSPC-GFP) a diet containing 0.2% cuprizone for 4-5 weeks, inducing deletion of Nampt in the adult Nestin+ population the week before starting the cuprizone diet (FIG. 20B) (Skripuletz et al, 2011). To ensure that analysis of progeny of adult Nestin+ cells, all mice in our cohort expressed Cre recombinase under the inducible Nestin promoter (Nestin-CreERT2) (Lagace et al, 2007) and the aforementioned Cre recombinase responsive GFP reporter transgene. The analysis focus was on lineage tracer marked (NestinGFP+) cells.

[1] = cited from earlier work
[2] = CC of control mice, cuprizone feeding
[3] = iNSPC-GFP CC, cuprizone feeding

## N#C/C(=C\c1ccc(-c2cc(Cl)ccc2Cl)o1)C(=O)Nc1cccc2ncccc12 [AGK2]
Sirt2
  oligodendrocyte formation (O4+): acutely suppressed oligodendrocyte formation

## NC(=O)C1CCCc2c1[nH]c1ccc(Cl)cc21 (stereo not drawn) [EX527]
Sirt1
  oligodendrocyte formation (O4+): acutely suppressed oligodendrocyte formation

## O=C(NN=C1CCCCC1)C(=O)NN=C1CCCCC1 [cuprizone, bis-cyclohexanone oxaldihydrazone]
NestinGFP+ cells; 0.2% cuprizone diet 4-5 weeks
  total number of NestinGFP+ cells in the iNSPC-GFP DG: did not alter
NestinGFP+ cells; [2]
  NestinGFP+Apc+ double positive cells: 4%
  NestinGFP+Sox10+ double positive cells: 16%
NestinGFP+ cells; SGZ, cuprizone fed
  percentage of NestinGFP+ cells co-localized with Gfap+: 41%
  percentage of NestinGFP+ cells co-localized with Nestin+: 35%
NestinGFP+ cells; [3]
  NestinGFP+Gfap+ double positive cells: 24%
  percentage of NestinGFP+Nestin+ cells: 41%

## O=C(O)c1cccnc1 [nicotinic acid]
[1]; chronic administration
  skeletal muscle insulin resistance: can cause skeletal muscle insulin resistance
[1]; chronic treatment
  blood FFA levels: tends to increase blood FFA levels
  total cholesterol and triglyceride levels: lowers total cholesterol and triglyceride levels
